Molecular target: HIV integrase (Human immunodeficiency virus type 1 group M subtype B, UniProt P04585)
Experiment: HIV integrase inhibitory activity assay (strand transfer, immunoplate, OD405)
Assay type: biochemical
Conditions: HIV integrase inhibition rate, absorbance OD405 nm
Description: The HIV integrase inhibitory activity was investigated based on the following assay method.
(1) Preparation of DNA Solution
By the same method as that described in Experimental Example 1 of WO 2004/024693, a substrate DNA solution (2 μmol/μl) and a target DNA solution (5 μmol/μl) were prepared. […] Each sequence of a substrate DNA and a target DNA is as described in the same Experimental Example.
(2) Measurement of Inhibition Rate (IC50 Value)
Streptavidin (manufactured by Vector Laboratories) was dissolved in a 0.1 M carbonate buffer solution (composition: 90 mM Na2CO3, 10 mM NaHCO3) to a concentration of 40 μg/ml. Each 50 μl of this solution was added to a well of an immunoplate (manufactured by NUNC), and this is allowed to stand at 4° C. overnight to adsorb. Then, each well was washed with a phosphate buffer (composition: 13.7 mM NaCl, 0.27 mM KCl, 0.43 mM Na2HPO4, 0.14 mM KH2PO4) two times, and 300 μl of a phosphate buffer containing 1% skim milk was added to block it for 30 minutes. Further, each well was washed with a phosphate buffer two times, […] of a substrate DNA solution (2 μmol/μl) was added to adsorb at room temperature for 30 minutes while shaking, and this was washed with a phosphate buffer two times and, then, distilled water once.
Then, to each well prepared as described above were added 12 μl of a buffer (composition: 150 mM MOPS (pH7.2), 75 mM MnCl2, 50 mM 2-mercaptoethanol, 25% glycerol, 500 μg/ml bovine serum albumin-fraction V), and 51 μl of a reaction solution prepared from […] of distilled water. Then, 9 μl of an integrase solution (30 μmol) was added, and the mixture was mixed well. To a well as a negative control (NC) was added 9 μl of a diluting solution (composition: 20 mM MOPS (pH7.2), 400 mM potassium glutamete, 1 mM EDTA, 0.1% NP-40, 20% glycerol, 1 mM DTT, 4 M urea), and this was mixed well using a plate mixer.
After the plate was incubated at 30° C. for 60 minutes, the reaction solution was discarded, followed by washing with 250 μl of a washing buffer (composition: 150 mM MOPS (pH7.2), 50 mM 2-mercaptoethanol, 25% glycerol, 500 μg/ml bovine serum albumin-fraction V) three times.
Then, to each well were added 12 μl of a buffer (composition: 150 mM MOPS (pH7.2), 75 mM MgCl2, 50 mM 2-mercaptoethanol, 25% glycerol, 500 μg/ml bovine serum albumin-fraction V), and 53 μl of a reaction solution prepared from 41 μl of distilled water. Further, 6 μl of a solution of a test compound in DMSO was added to each well, and 6 μl of DMSO was added to a well as a positive control (PC), followed by mixing well using a plate mixer. […]
C abs.; absorbance of well of compound
NC abs.: absorbance of NC
PC abs.: absorbance of PC

Row | Compound | IC50
1 | CN1CN(C[C@@H]2CCCO2)C(=O)c2c(O)c(=O)c(C(=O)NCc3ccc(F)cc3F)cn21 [Example N-15, 5-Hydroxy-1-methyl-4,6-dioxo-3-[(S)-1-(tetrahydro-furan-2-yl)methyl]-2,3,4,6-tetrahydro-1H-pyrid[2,1-f][1,2,4]triazine-7-carboxylic acid 2,4-difluoro-benzylamide] | 3.3 nM
2 | CN1CN(C[C@H]2CCCO2)C(=O)c2c(O)c(=O)c(C(=O)NCc3ccc(F)cc3F)cn21 [Example N-16, 5-Hydroxy-1-methyl-4,6-dioxo-3-[(R)-1-(tetrahydro-furan-2-yl)methyl]-2,3,4,6-tetrahydro-1H-pyrid[2,1-f][1,2,4]triazine-7-carboxylic acid 2,4-difluoro-benzylamide] | 2.6 nM
3 | O=C(NCc1ccc(F)cc1F)c1cn2c(c(O)c1=O)C(=O)N(C[C@@H]1CCCO1)CN2 [Example O-06, 5-Hydroxy-4,6-dioxo-3-[(S)-1-(tetrahydro-furan-2-yl)methyl]-2,3,4,6-tetrahydro-1H-pyrid[2,1-f][1,2,4]triazine-7-carboxylic acid 2,4-difluoro-benzylamide] | 3.8 nM
4 | O=C(NCc1ccc(F)cc1F)c1cn2c(c(O)c1=O)C(=O)N(CCN1CCOCC1)CN2 [Example O-07, 5-Hydroxy-3-(2-morpholin-4-yl-ethyl)-4,6-dioxo-2,3,4,6-tetrahydro-1H-pyrid[2,1-f][1,2,4]triazine-7-carboxylic acid 2,4-difluoro-benzylamide] | 4.8 nM

Reference: patent US8188271B2, “Polycyclic carbamoylpyridone derivative having HIV integrase inhibitory activity” (Shionogi & Co., Ltd., priority 2005, dated 2012)
